In patent US20050232860A1, “Use of edg-receptor agonists for the treatment of hypertension” (priority 2001, published 2005):

Tested on: α2-adrenoceptors
Assay: [^3H]rauwolscine radioligand binding to membranes from undifferentiated PC12 cells
Parameters: species or system rat
Settings: 16.8 nM radioligand; for [^3H]Rauwolscine binding: n=4
Experimental: Results are expressed as mean values±SEM. All experiments were carried out in triplicate.

**Q.** Which “[^3H]Rauwolscine binding as % of the radioactivity added to each assay” value (absence of 10 μM rauwolscine) does the source give for `COC(=O)[C@H]1[C@H]2C[C@H]3c4[nH]c5ccccc5c4CCN3C[C@H]2CC[C@@H]1O` [[^3H]Rauwolscine, [O-methyl-3H]rauwolscine] here?
**A.** The value was 0.19±0.01%.

**Q.** And the “[^3H]Rauwolscine binding” value (absence of 10 μM rauwolscine)?
**A.** The value was 134.0±7.1 fmol/mg protein.

**Q.** And the “[^3H]Rauwolscine binding as % of the radioactivity added to each assay” value (presence of 10 μM rauwolscine)?
**A.** The value was 0.19±0.01%.

**Q.** And the “[^3H]Rauwolscine binding” value (presence of 10 μM rauwolscine)?
**A.** The value was 132.8±7.0 fmol/mg protein.
